Assay results from PMC8272148, “Antioxidant Serine-(NSAID) Hybrids with Anti-Inflammatory and Hypolipidemic Potency” (Molecules, 2021).
Marks after values point to notes of the source that are not given here.

Columns and labels:
[1] = system: carrageenan-induced rat paw edema; assay: Carrageenan-induced rat paw edema; type: in vivo, Wistar rats; conditions: ip, 0.15 mmol/kg i.p., 3.5 h after carrageenan, vs controls, read-out: % Edema Reduction
Description: An amount of 0.1 mL of an aqueous carrageenan solution (1% w/v) was injected into the hind paw of adult Wistar rats (6 rats were used for each compound). The tested compounds (in water with a few drops of Tween 80) were administered i.p. (0.15 mmol/kg) 5 min before the carrageenan administration. The produced edema, after 3.5 h, was estimated as paw weight increase.

[2] = system: Triton WR1339 (tyloxapol)-induced hyperlipidemia; assay: Triton WR1339 (tyloxapol)-induced hyperlipidemia in rats; type: in vivo, Wistar rats; conditions: 150 μmol/kg i.p., rat plasma, 24 h, tyloxapol 200 mg/kg i.p.
Description: The examined compounds (0.15 mmol/kg) were administered i.p. one hour later. Blood was taken from the aorta after 24 h, for the determination of plasma total cholesterol, LDL cholesterol and triglyceride concentration, using commercial kits.

[3] = Interaction with the stable radical DPPH; conditions: DPPH 200 μM, after 30 min
Description: Compounds, dissolved in absolute ethanol, at concentrations of 25–200 μM, were added to an equal volume of an ethanolic solution of DPPH (final concentration 200 μM) at room temperature (22 ± 2 °C). Absorbance (517 nm) was recorded after 30 min [26]. For the calculation of percent interaction, the residual absorbance of DPPH Ai (at a fixed concentration) after its interaction with the examined compounds (at various concentrations) was compared with the control absorbance Ao, without the addition of compounds, following the equation: (1) Percent interaction=100−(Ai/Ao×100)

[4] = system: rat hepatic microsomal membrane lipid peroxidation; assay: Inhibition of rat hepatic microsomal membrane lipid peroxidation (ferrous ascorbate induced, TBA reactive material); type: biochemical; conditions: 100 μM compound, after 45 min of incubation
Description: The peroxidation of the heat-inactivated rat hepatic microsomal fraction was induced by ferrous ascorbate. The studied compounds, in dimethylsulfoxide, were added at concentrations of 1 μM–1 mM. Aliquots were taken from the incubation mixture (37 °C) for 45 min. Lipid peroxidation was assessed spectrophotometrically (535/600 nm) as a 2-thiobarbituric acid reactive material. The incubation mixture and solvents were found not to interfere with the assay.

soybean lipoxygenase 1-B = biological target: T1, soybean lipoxygenase 1-B (Glycine max, UniProt P08170); assay: In vitro inhibition of soybean lipoxygenase; type: biochemical; conditions: linoleic acid (100 μM) as substrate, after 7 min of incubation
T1 sequence (P08170 1-839): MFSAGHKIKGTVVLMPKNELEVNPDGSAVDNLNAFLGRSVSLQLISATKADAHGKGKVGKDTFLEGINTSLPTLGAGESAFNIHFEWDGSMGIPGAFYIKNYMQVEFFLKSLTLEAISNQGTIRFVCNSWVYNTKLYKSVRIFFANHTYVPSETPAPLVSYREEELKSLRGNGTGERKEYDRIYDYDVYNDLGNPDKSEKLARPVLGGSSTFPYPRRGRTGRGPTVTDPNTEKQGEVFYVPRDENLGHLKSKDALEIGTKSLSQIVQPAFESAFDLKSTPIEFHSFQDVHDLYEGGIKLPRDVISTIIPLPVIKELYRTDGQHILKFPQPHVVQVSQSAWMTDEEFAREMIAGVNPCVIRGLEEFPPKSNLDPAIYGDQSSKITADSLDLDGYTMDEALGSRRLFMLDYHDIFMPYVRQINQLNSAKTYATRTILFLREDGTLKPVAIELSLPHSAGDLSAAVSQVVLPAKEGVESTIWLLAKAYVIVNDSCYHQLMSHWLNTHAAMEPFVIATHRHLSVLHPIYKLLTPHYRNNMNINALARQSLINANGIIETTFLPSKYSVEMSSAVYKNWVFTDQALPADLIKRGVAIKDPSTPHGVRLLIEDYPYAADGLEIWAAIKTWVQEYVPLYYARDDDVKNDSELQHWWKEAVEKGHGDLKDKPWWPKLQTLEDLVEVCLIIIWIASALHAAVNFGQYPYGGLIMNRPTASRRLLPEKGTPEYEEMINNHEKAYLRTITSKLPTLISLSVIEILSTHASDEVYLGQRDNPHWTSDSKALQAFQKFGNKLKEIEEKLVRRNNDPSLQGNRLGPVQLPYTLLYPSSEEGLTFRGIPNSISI
Description: The reaction mixture contained the test compounds, dissolved in absolute ethanol (0.1 mL) at various concentrations, or the solvent (control, 0.1 mL), soybean lipoxygenase dissolved in 0.9% NaCl solution (250 u/mL, 0.2 mL) and sodium linoleate (100 μM) in Tris–HCl buffer, pH 9.0 (2.7 mL). The reaction was followed for 7 min at 28 °C, recording the absorbance of a conjugated diene structure at 234 nm, due to the formation of 13-hydroperoxy-linoleic acid. […] For the estimation of the type of inhibition, the above experiments were repeated, using sodium linoleate at 1 mM, which is higher than the saturating substrate concentration.

What does the source list for `CCOC(=O)C(COC(=O)C(C)c1cccc(C(=O)c2ccccc2)c1)NC(=O)/C=C/c1cc(C(C)(C)C)c(O)c(C(C)(C)C)c1` (stereo not shown) [Compound 12, (E)-ethyl 3-((2-(3-benzoylphenyl)propanoyl)oxy)-2-(3-(3,5-di-tert-butyl-4-hydroxyphenyl)acrylamido)propanoate]?
inhibition in vivo at 150 µmol/kg [1]: 59%; % Reduction LDL-C (LDL cholesterol) [2]: 56.2 * %; % Reduction TC (total cholesterol) [2]: 53.4 ** %; % Reduction TG (triglycerides) [2]: 33.2 * %; Percent Interaction with DPPH ([3]; compound 25 μM): 20.0%; Percent Interaction with DPPH ([3]; compound 50 μM): 24.7%; Percent Interaction with DPPH ([3]; compound 100 μM): 53.8%; Percent Interaction with DPPH ([3]; compound 200 μM): 94.0%; Inhibition of Lipid Peroxidation, percent at 100 μM [4]: 20%/100 μM; IC50 (soybean lipoxygenase 1-B): 90 µM
